The source of these data is patent US20060252732A1, “Blood vessel-growth promoter” (priority 2003, published 2006).

One test deals with Wister female rats. Put plainly: Neo-vascularization test using rats (subcutaneous urethane sponge, carmine dye). It counts as in vivo, rat. As for the experimental part: Neo-Vascularization Test Using Rats
Wister female rats (7 weeks old; n=6) were anesthetized with ether, and a urethane sponge (diameter: 8 mm) previously permeating a drug was inserted in subcutaneous tissue of right shoulder. As a test drug, acetylsalicylic acid (2 mg) and as a positive control retinoid (0.5 mg) were administered, respectively. Four days later after insertion of the sponge, 5% gelatin solution containing 5% carmine dye kept at 37° C. was administered under ether anesthesia in tail vein of the rat. After injection, the rats in suspended animation were left at 4° C. for 2 hours, and the gelatin solution containing carmine dye distributed in blood vessel was solidified. After butcher of the rats, the sponge with granulation tissue was extracted and the dye therein was extracted. Absorbancy at 530 nm was measured to calculate the amount of the carmine dye.

Test [1] concerns human vascular endothelial cells (HUVEC) and fibroblast. Kind of test: Measurement of neo-vascularization ability (tube formation, CD31 staining, Angiogenesis Kit KZ-1000). It counts as cell-based. The protocol:
Measurement of Neo-Vascularization Ability
The tube formation by a mixture-system of human vascular endothelial cells (HUVEC) and fibroblast was investigated by CD31 staining kit (Kurabo Ind.) to be visualized, and be made score by an analytical soft (NIH Image). A broth containing acetylsalicylic (0.5, 5.5, 55 μM; changed every three days) was added to neo-vascularization kit (Angiogenesis Kit KZ-1000; Kurabo Ind.) prepared by mixing human vascular endothelial cells and fibroblast, and the resulting broth was cultivated for 11 days. Then immuno histochemical study was performed by using CD31 staining kit, and the color photo was taken. The picture was analyzed using NIH Image and the amount of the formed tubes was scored as an area to evaluate. As a positive control, vascula endothelial growth factor (VEGF; 10 ng/mL) and as a negative control sramine (100 μM) were used, respectively.

Test [2] deals with human umbilical vein endothelial cells (HUVEC). Put plainly: Proliferation test on human umbilical vein endothelial cells (HUVEC). It counts as cell-based. The protocol:
Proliferation Test on Human Umbilical Vein Endothelial Cells (HUVEC) […] After the culture broth was filtered by suction, to a minimum essential medium (MEM) broth containing 1% FBS, acetylsalicylic acid was added at a concentration (0, 0.055, 0.55, 5.5, 55, 555 μM, respectively) and each mixture was cultivated. After 0, 24 and 48 hours the number of alive cells was counted. As a positive control vascular endothelial growth factor (VEGF; Vascular Endothelial Growth Factor-A) (20 ng/mL) was used. In this measurement, Cell Counting Kit-8 (Dojin Chemical Co.) was used.

For the compound `CC(=O)Oc1ccccc1C(=O)O` [Acetylsalicylic acid, acetylsalicylic acid], in the test on Wister female rats, the “Neo-vascularization promoting activity in vivo” value is listed as “neo-vascularization promoting activity was shown”. The “Amount of carmine dye” value in the test with Wister female rats (2 mg in sponge, subcutaneous, 4 days after insertion) stood at 16.0 ± 4.2 µg/mL. In test [1], the Tube-formation promoting activity result is “showed tube-formation promoting activity”. Besides, the “Neo-vascularization ability, Relative area After 11 days” value in test [1] (5.5 μM) came to 1.17; in test [1] (55 μM), 1.08. For the same compound, the “Change of the number of HUVEC, Relative absorvancy” value (shortened to “Change … Relative absorvancy”) in test [2] (0.055 μM drug, after 0 hour) was 1.102; in test [2] (0.055 μM drug, after 24 hours) it was 1.252; in test [2] (0.055 μM drug, after 48 hours) it was 1.303; in test [2] (0.55 μM drug, after 0 hour), 1.144; in test [2] (0.55 μM drug, after 24 hours), 2.001; in test [2] (0.55 μM drug, after 48 hours) it was 1.709. Further, the “Change … Relative absorvancy” value came out at 1.084 in test [2] (5.5 μM drug, after 0 hour); 1.811 in test [2] (5.5 μM drug, after 24 hours); 1.575 in test [2] (5.5 μM drug, after 48 hours); 1.107 in test [2] (55 μM drug, after 0 hour); 1.754 in test [2] (55 μM drug, after 24 hours); 1.475 in test [2] (55 μM drug, after 48 hours). Moreover, the “Change … Relative absorvancy” value in test [2] (555 μM drug, after 0 hour) amounted to 1.017; in test [2] (555 μM drug, after 24 hours) it was 1.044; in test [2] (555 μM drug, after 48 hours), 0.699. For the same compound, in test [2] (added in more than 0.055 μM), the “Proliferation promoting activity of HUVEC” value is listed as “proliferation promoting activity of HUVEC was confirmed”. Besides, in test [2] (added in more than 555 μM), the “Proliferation promoting effect on HUVEC” value is “proliferation promoting effect was not recognized or was even depressed”.
Take `Cc1ccc(C(=O)Nc2ccc(S(=O)(=O)O)c3cc(S(=O)(=O)O)cc(S(=O)(=O)O)c23)cc1NC(=O)c1cccc(NC(=O)Nc2cccc(C(=O)Nc3cc(C(=O)Nc4ccc(S(=O)(=O)O)c5cc(S(=O)(=O)O)cc(S(=O)(=O)O)c45)ccc3C)c2)c1` [Sramine, sramine]: in test [1] (100 μM (negative control)), the “Neo-vascularization ability, Relative area After 11 days” value is 0.04.
Consider VEGF, for which the “Neo-vascularization ability, Relative area After 11 days” value in test [1] (10 ng/mL (positive control)) worked out at 1.71. Moreover, the “Change … Relative absorvancy” value was 1.003 in test [2] (20 ng/mL (positive control), after 0 hour); 2.041 in test [2] (20 ng/mL (positive control), after 24 hours); 1.889 in test [2] (20 ng/mL (positive control), after 48 hours).
